Patent US9090605B2, “Substituted 5-,6- and 7-membered heterocycles, medicaments containing such compounds, and their use” (Vitae Pharmaceuticals, Inc., priority 2010, dated 2015)

What follows are compounds tested against 11β-HSD1 (Homo sapiens, UniProt P28845) (assay: In vitro inhibition of 11β-HSD1, HTRF detection of cortisol generated by human liver microsomes (biological test example 1)). Details: 1 hour at 37° C., cortisone 80 nM, NADPH 200 μM, read-out: IC50, inhibitory activity on 11β-HSD 1.
Sequence of 11β-HSD1 (P28845 whole entry): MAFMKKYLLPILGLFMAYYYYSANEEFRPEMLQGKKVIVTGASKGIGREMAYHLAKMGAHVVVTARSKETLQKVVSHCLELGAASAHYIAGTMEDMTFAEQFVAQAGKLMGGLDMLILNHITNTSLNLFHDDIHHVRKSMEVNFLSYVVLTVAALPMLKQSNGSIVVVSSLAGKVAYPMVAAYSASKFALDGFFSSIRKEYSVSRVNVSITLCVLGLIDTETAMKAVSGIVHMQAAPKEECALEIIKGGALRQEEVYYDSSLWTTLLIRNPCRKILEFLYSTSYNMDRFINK
Assay type: biochemical
Set-up: detecting cortisol generated from cortisterone by human liver microsomes; from tissue; host or cells: human liver microsomes
Description: Briefly, compounds were incubated for 1 hour at 37° C. in Tris buffer (20 mM tris, 5 mM EDTA, pH 6.0) containing NADPH (200 μM) and cortisone (80 nM). Cortisol generated in the reaction was then detected with a competitive immunoassay, involving two HTRF conjugates: cortisol linked to XL665 and anti-cortisol antibody labeled with Europium cryptate. The incubation period for detection reaction was typically 2 hours. The amount of cortisol was determined by reading the time-resolved fluorescence of the wells (Ex 320/75 nm; Em 615/8.5 nm and 665/7.5 nm). The ratio of the two emission signals was then calculated (Em665*10000/Em615). […] Each assay also contained a calibration curve with cortisol to transform the fluorescent data into cortisol concentrations. Percent inhibition (% CTL) of each compound was determined relative to the carbenoxolone signal and IC50 curves were generated.
In the case of CCOC(=O)C1(c2ccc(-c3ccc([C@H](C)N4CC[C@](CC(C)(C)O)(c5ccccc5)OC4=O)cc3)nn2)CC1 [Example 7, 1-[6-(4-{(S)-1-[(S)-6-(2-Hydroxy-2-methyl-propyl)-2-oxo-6-phenyl-[1,3]oxazinan-3-yl]-ethyl}-phenyl)-pyridazin-3-yl]-cyclopropanecarboxylic acid ethyl ester], the IC50 is reported as 41 nM. Work on C[C@@H](c1ccc(-c2cccc(C3(S(C)(=O)=O)CC3)n2)cc1)N1CC[C@](CC(C)(C)O)(c2ccccc2)OC1=O [Example 20, (S)-6-(2-Hydroxy-2-methyl-propyl)-3-((S)-1-{4-[6-(1-methanesulfonyl-cyclopropyl)-pyridin-2-yl]-phenyl}-ethyl)-6-phenyl-[1,3]oxazinan-2-one] yielded an IC50 of 73 nM. Work on C[C@@H](c1ccc(-c2ccc(C3(C(=O)O)CC3)nn2)cc1)N1CC[C@](CC(C)(C)O)(c2ccccc2)OC1=O [Example 8, 1-[6-(4-{(S)-1-[(S)-6-(2-Hydroxy-2-methyl-propyl)-2-oxo-6-phenyl-[1,3]oxazinan-3-yl]-ethyl}-phenyl)-pyridazin-3-yl]-cyclopropanecarboxylic acid] yielded an IC50 of 182 nM. Work on C[C@@H](c1ccc(-c2ccc(C3(C(=O)N(C)C)CC3)nn2)cc1)N1CC[C@](CC(C)(C)O)(c2ccccc2)OC1=O [Example 11, 1-[6-(4-{(S)-1-[(S)-6-(2-Hydroxy-2-methyl-propyl)-2-oxo-6-phenyl-[1,3]oxazinan-3-yl]-ethyl}-phenyl)-pyridazin-3-yl]-cyclopropanecarboxylic acid dimethylamide] yielded an IC50 of 94 nM. C[C@@H](c1ccc(-c2ccnc(C3(C(=O)N(C)C)CC3)c2)cc1)N1CC[C@](CC(C)(C)O)(c2ccccc2)OC1=O [Example 48, 1-[4-(4-{(S)-1-[(S)-6-(2-Hydroxy-2-methyl-propyl)-2-oxo-6-phenyl-[1,3]oxazinan-3-yl]-ethyl}-phenyl)-pyridin-2-yl]-cyclopropanecarboxylic acid dimethylamide] showed an IC50 of 47 nM. With C[C@@H](c1ccc(-c2ccc(C3(C(N)=O)CC3)cn2)cc1)N1CC[C@](CC(C)(C)O)(c2ccccc2)OC1=O [Example 19, 1-[6-(4-{(S)-1-[(S)-6-(2-Hydroxy-2-methyl-propyl)-2-oxo-6-phenyl-[1,3]oxazinan-3-yl]-ethyl}-phenyl)-pyridin-3-yl]-cyclopropanecarboxylic acid amide] the IC50 was 35 nM. For C[C@@H](c1ccc(-c2ccc(C3(C(N)=O)CC3)nc2)cc1)N1CC[C@](CC(C)(C)O)(c2ccccc2)OC1=O [Example 3, 1-[5-(4-{(S)-1-[(S)-6-(2-Hydroxy-2-methyl-propyl)-2-oxo-6-phenyl-[1,3]oxazinan-3-yl]-ethyl}-phenyl)-pyridin-2-yl]-cyclopropanecarboxylic acid amide], the IC50 was 39 nM. Work on C[C@@H](c1ccc(-c2ccn([C@H]3CCOC3)c(=O)c2)cc1)N1CC[C@](CC(C)(C)O)(c2ccccc2)OC1=O [Example 13, (S)-6-(2-Hydroxy-2-methyl-propyl)-3-((S)-1-{4-[2-oxo-1-((S)-tetrahydro-furan-3-yl)-1,2-dihydro-pyridin-4-yl]-phenyl}-ethyl)-6-phenyl-[1,3]oxazinan-2-one] yielded an IC50 of 46 nM. C[C@@H](c1ccc(-c2ccc(C3(C(N)=O)CC3)nn2)cc1)N1CC[C@](CC(C)(C)O)(c2ccccc2)OC1=O [Example 9, 1-[6-(4-{(S)-1-[(S)-6-(2-Hydroxy-2-methyl-propyl)-2-oxo-6-phenyl-[1,3]oxazinan-3-yl]-ethyl}-phenyl)-pyridazin-3-yl]-cyclopropanecarboxylic acid amide] gave an IC50 of 68 nM. In the case of C[C@@H](c1ccc(-c2ccnc(C3(C(N)=O)CC3)c2)cc1)N1CC[C@](CC(C)(C)O)(c2ccccc2)OC1=O [Example 46, 1-[4-(4-{(S)-1-[(S)-6-(2-Hydroxy-2-methyl-propyl)-2-oxo-6-phenyl-[1,3]oxazinan-3-yl]-ethyl}-phenyl)-pyridin-2-yl]-cyclopropanecarboxylic acid amide], the IC50 is reported as 56 nM. Compound C[C@@H](c1ccc(-c2ccc(N3CCC[C@H]3C(N)=O)nc2)cc1)N1CC[C@](CC(C)(C)O)(c2ccccc2)OC1=O [Example 54, (S)-1-[5-(4-{(S)-1-[(S)-6-(2-Hydroxy-2-methyl-propyl)-2-oxo-6-phenyl-[1,3]oxazinan-3-yl]-ethyl}-phenyl)-pyridin-2-yl]-pyrrolidine-2-carboxylic acid amide] has an IC50 of 30 nM. Work on C[C@@H](c1ccc(-c2ccc(C3(C(=O)N(C)C)CC3)nc2)cc1)N1CC[C@](CC(C)(C)O)(c2ccccc2)OC1=O [Example 6, 1-[5-(4-{(S)-1-[(S)-6-(2-Hydroxy-2-methyl-propyl)-2-oxo-6-phenyl-[1,3]oxazinan-3-yl]-ethyl}-phenyl)-pyridin-2-yl]-cyclopropanecarboxylic acid dimethylamide] yielded an IC50 of 21 nM. With C[C@@H](c1ccc(-c2ccnc(C3(C(=O)O)CC3)c2)cc1)N1CC[C@](CC(C)(C)O)(c2ccccc2)OC1=O [Example 45, 1-[4-(4-{(S)-1-[(S)-6-(2-Hydroxy-2-methyl-propyl)-2-oxo-6-phenyl-[1,3]oxazinan-3-yl]-ethyl}-phenyl)-pyridin-2-yl]-cyclopropanecarboxylic acid] the IC50 was 186 nM. Compound C[C@@H](c1ccc(-c2ccc(C3(S(C)(=O)=O)CC3)nc2)cc1)N1CC[C@](CC(C)(C)O)(c2ccccc2)OC1=O [Example 18, (S)-6-(2-Hydroxy-2-methyl-propyl)-3-((S)-1-{4-[6-(1-methanesulfonyl-cyclopropyl)-pyridin-3-yl]-phenyl}-ethyl)-6-phenyl-[1,3]oxazinan-2-one] has an IC50 of 64 nM. C[C@@H](c1ccc(-c2cnn([C@@H]3CCOC3)c2)cc1)N1CC[C@](CC(C)(C)O)(c2ccccc2)OC1=O [Example 15, (S)-6-(2-Hydroxy-2-methyl-propyl)-6-phenyl-3-((S)-1-{4-[1-((R)-tetrahydro-furan-3-yl)-1H-pyrazol-4-yl]-phenyl}-ethyl)-[1,3]oxazinan-2-one] showed an IC50 of 27 nM. C[C@@H](c1ccc(-c2ccc(C3(C)CCN(C)C3=O)nc2)cc1)N1CC[C@](CC(C)(C)O)(c2ccccc2)OC1=O (stereo partly drawn) [Example 57, 3-((S)-1-{4-[6-(1,3-Dimethyl-2-oxo-pyrrolidin-3-yl)-pyridin-3-yl]-phenyl}-ethyl)-(S)-6-(2-hydroxy-2-methyl-propyl)-6-phenyl-[1,3]oxazinan-2-one] showed an IC50 of 29 nM. Work on C[C@@H](c1ccc(-c2cccc(C3(C(N)=O)CC3)n2)cc1)N1CC[C@](CC(C)(C)O)(c2ccccc2)OC1=O [Example 22, 1-[6-(4-{(S)-1-[(S)-6-(2-Hydroxy-2-methyl-propyl)-2-oxo-6-phenyl-[1,3]oxazinan-3-yl]-ethyl}-phenyl)-pyridin-2-yl]-cyclopropanecarboxylic acid amide] yielded an IC50 of 86 nM. Work on CNC(=O)C1(c2ccc(-c3ccc([C@H](C)N4CC[C@](CC(C)(C)O)(c5ccccc5)OC4=O)cc3)nn2)CC1 [Example 10, 1-[6-(4-{(S)-1-[(S)-6-(2-Hydroxy-2-methyl-propyl)-2-oxo-6-phenyl-[1,3]oxazinan-3-yl]-ethyl}-phenyl)-pyridazin-3-yl]-cyclopropanecarboxylic acid methylamide] yielded an IC50 of 61 nM. C[C@@H](c1ccc(-c2ccc(C3(C(N)=O)CCCC3)nc2)cc1)N1CC[C@](CC(C)(C)O)(c2ccccc2)OC1=O [Example 42, 1-[5-(4-{(S)-1-[(S)-6-(2-Hydroxy-2-methyl-propyl)-2-oxo-6-phenyl-[1,3]oxazinan-3-yl]-ethyl}-phenyl)-pyridin-2-yl]-cyclopentanecarboxylic acid amide] was tested, and the IC50 was 56 nM. Work on C[C@@H](c1ccc(-c2ccc(C3(O)COC3)cc2)cc1)N1CC[C@](CC(C)(C)O)(c2ccccc2)OC1=O [Example 1, (S)-6-(2-Hydroxy-2-methyl-propyl)-3-{(S)-1-[4′-(3-hydroxy-oxetan-3-yl)-biphenyl-4-yl]-ethyl}-6-phenyl-[1,3]oxazinan-2-one] yielded an IC50 of 56 nM. With C[C@@H](c1ccc(-c2ccc(C3(C(N)=O)CCCCC3)nc2)cc1)N1CC[C@](CC(C)(C)O)(c2ccccc2)OC1=O [Example 43, 1-[5-(4-{(S)-1-[(S)-6-(2-Hydroxy-2-methyl-propyl)-2-oxo-6-phenyl-[1,3]oxazinan-3-yl]-ethyl}-phenyl)-pyridin-2-yl]-cyclohexanecarboxylic acid amide] the IC50 was 67 nM. With C[C@@H](c1ccc(-c2ccnc(C3(S(C)(=O)=O)CC3)c2)cc1)N1CC[C@](CC(C)(C)O)(c2ccccc2)OC1=O [Example 21, (S)-6-(2-Hydroxy-2-methyl-propyl)-3-((S)-1-{4-[2-(1-methanesulfonyl-cyclopropyl)-pyridin-4-yl]-phenyl}-ethyl)-6-phenyl-[1,3]oxazinan-2-one] the IC50 was 52 nM. C[C@@H](c1ccc(-c2ccc(C3(C#N)CC3)nn2)cc1)N1CC[C@](CC(C)(C)O)(c2ccccc2)OC1=O [Example 4, 1-[6-(4-{(S)-1-[(S)-6-(2-Hydroxy-2-methyl-propyl)-2-oxo-6-phenyl-[1,3]oxazinan-3-yl]-ethyl}-phenyl)-pyridazin-3-yl]-cyclopropanecarbonitrile] was tested, and the IC50 was 53 nM. In the case of C[C@@H](c1ccc(-c2cccc(C3(C(=O)N(C)C)CC3)n2)cc1)N1CC[C@](CC(C)(C)O)(c2ccccc2)OC1=O [Example 24, 1-[6-(4-{(S)-1-[(S)-6-(2-Hydroxy-2-methyl-propyl)-2-oxo-6-phenyl-[1,3]oxazinan-3-yl]-ethyl}-phenyl)-pyridin-2-yl]-cyclopropanecarboxylic acid dimethylamide], the IC50 is reported as 53 nM.
